Results as given in the CheMixHub viscosity set.
± gives the uncertainty stated by the source.

Assay: xn = mol fraction of the nth substance listed

N=C(N)NCCC[C@H](N)C(=O)O + O
viscosity [mPa·s]
Conditions	100 kPa	101 kPa
293.15 K, x1 = 0.00045	1.015 ± 0.013	–
293.15 K, x1 = 0.00135	1.038 ± 0.013	–
293.15 K, x1 = 0.002247	1.06 ± 0.013	–
293.15 K, x1 = 0.002695	1.071 ± 0.013	–
293.15 K, x1 = 0.00359	1.094 ± 0.013	–
293.15 K, x1 = 0.008927	–	1.295 ± 0.027
293.15 K, x1 = 0.01246	–	1.431 ± 0.03
298.15 K, x1 = 0.00135	0.9205 ± 0.011	–
303.15 K, x1 = 0.00045	0.8065 ± 0.01	–
303.15 K, x1 = 0.00135	0.8226 ± 0.01	–
303.15 K, x1 = 0.001798	0.8306 ± 0.01	–
303.15 K, x1 = 0.002247	0.8385 ± 0.01	–
303.15 K, x1 = 0.003143	0.854 ± 0.011	–
303.15 K, x1 = 0.00359	0.8618 ± 0.011	0.8782 ± 0.018
308.15 K, x1 = 0.003143	0.7665 ± 0.0095	–
313.15 K, x1 = 0.003143	0.6924 ± 0.0086	–
313.15 K, x1 = 0.005375	–	0.7504 ± 0.016
313.15 K, x1 = 0.01246	–	0.9039 ± 0.019
318.15 K, x1 = 0.002695	0.6262 ± 0.0078	–
323.15 K, x1 = 0.0018	–	0.5712 ± 0.012
323.15 K, x1 = 0.00359	–	0.597 ± 0.013
323.15 K, x1 = 0.005375	–	0.6242 ± 0.013
323.15 K, x1 = 0.008927	–	0.6832 ± 0.014
323.15 K, x1 = 0.01246	–	0.7455 ± 0.016

O=C[O-].OCC[NH2+]CCO + O
100 kPa
Conditions	viscosity [mPa·s]
293.15 K, x2 = 0.8484	8.19 ± 1.7
303.15 K, x2 = 0.4068	75.66 ± 15
303.15 K, x2 = 0.4845	65.08 ± 13
303.15 K, x2 = 0.7816	11.05 ± 2.2
303.15 K, x2 = 0.8484	5.927 ± 1.2
313.15 K, x2 = 0.2013	99.28 ± 20
313.15 K, x2 = 0.2622	77.5 ± 16
313.15 K, x2 = 0.7816	7.98 ± 1.6
323.15 K, x2 = 0.2013	61.45 ± 12
323.15 K, x2 = 0.7816	6.008 ± 1.2
323.15 K, x2 = 0.9708	0.9306 ± 0.19

O=S(=O)([O-])NC1CCCCC1.[Na+] + O
viscosity [mPa·s], 101 kPa
Conditions	x1 = 0.0007834	x1 = 0.001319	x1 = 0.001692	x1 = 0.002246	x1 = 0.002766	x1 = 0.003045	x1 = 0.00349	x1 = 0.004121	x1 = 0.00513	x1 = 0.005949
293.15 K	1.028 ± 0.0069	1.045 ± 0.007	1.058 ± 0.007	1.078 ± 0.0072	1.096 ± 0.0073	1.107 ± 0.0073	1.124 ± 0.0074	1.147 ± 0.0076	1.184 ± 0.0078	1.217 ± 0.008
298.15 K	0.9131 ± 0.0062	0.9289 ± 0.0063	0.9398 ± 0.0063	0.9564 ± 0.0064	0.973 ± 0.0065	0.9813 ± 0.0066	0.9953 ± 0.0067	1.015 ± 0.0068	1.047 ± 0.007	1.075 ± 0.0071
303.15 K	0.8176 ± 0.0056	0.8313 ± 0.0057	0.8413 ± 0.0057	0.8553 ± 0.0058	0.8697 ± 0.0059	0.8768 ± 0.0059	0.889 ± 0.006	0.9061 ± 0.0061	0.9337 ± 0.0063	0.9581 ± 0.0064
313.15 K	0.6686 ± 0.0047	0.6797 ± 0.0048	0.6875 ± 0.0048	0.6983 ± 0.0049	0.7094 ± 0.005	0.7149 ± 0.005	0.7243 ± 0.005	0.7375 ± 0.0051	0.7588 ± 0.0052	0.7774 ± 0.0053
323.15 K	0.5593 ± 0.0041	0.568 ± 0.0041	0.5741 ± 0.0042	0.5829 ± 0.0042	0.5918 ± 0.0043	0.5961 ± 0.0043	0.6036 ± 0.0043	0.6142 ± 0.0044	0.6312 ± 0.0045	0.6458 ± 0.0046
